{"source": "patent US20240261276A1", "about": "“NITROXOLINE FOR USE IN THE TREATMENT OF CUTANEOUS NEUROFIBROMA” (HEALX LTD, priority 2021, published 2024)", "key": {"[1]": {"system": "cNF tumour cells (Tom+) in the skin of Nf1-KO mice", "test": "In vivo drug testing in Nf1-KO mice with established cNFs", "set-up": "species or system mouse", "conditions": "one month", "source_text": "This study uses the same mouse model that was used for in vitro testing, the Prss56Cre/+, R26tdTom/+, NF1f/l mouse (Radomska et a., 2019). This study is a standard experimental design in the field with endpoints being terminal and not longitudinal throughout study.\nPrss56Cre/+, R26tdTom/+, NF19/fl herein referred to as Nf1-KO mice develop cNFs after one year of age. However, cNF development occurs at an earlier age after skin injury induced by mice fighting, which is normal mouse behaviour. In this experiment, at least five six-week old Nf1-KO male mice were placed in a cage together, once the mice had sustained a level of skin injury via fighting they were removed from the cage and monitored. At approximately three months of age the mice that had sustained fighting injuries developed several cNFs. As a fluorescent reporter gene is turned on in cells that have Nf1 deleted, cNF development could be monitored via fluorescent imaging of the skin using an epifluorescent microscope (Leica MZ75). After 1-2 months mice that had established, mature cNFs were then enrolled into a drug treatment study. […]\nSchwann cells that are Nf1-null also express the fluorescent reporter tomato (Tom+). cNFs are derived from Nf1-null SCs which are Tom+, therefore fluorescence can be used to identify tumours. […]"}, "Tom+ NF1−/− cells [2]": {"system": "Tom+ NF1−/− cells", "test": "Proliferative activity (CellTrace, cytometry) in floating sphere culture, mutant cells", "type": "cell-based, mouse", "conditions": "for Ratio MIFmean (proliferation): NF1−/− cells, normalised to DMSO", "procedure": "(§1) This study uses a Nf1-KO mouse strain(Prss56Cre/+, R26tdTom/+, NF1fl/fl) developing cutaneous neurofibromas (cNFs) that faithfully recapitulates human disease (Radomska et a., 2019). In this model, simultaneous bi-allelic loss of Nf1 and expression of Tomato fluorescent reporters were targeted into glial-stem like cells at the origin of cNFs. The assay was performed ex vivo using non-adherent cells in which Tomato expressing Nf1−/− and Nf1+/− stem-like cells from skin can be amplified, and their properties further characterized. […] In this system, Nf1−/− cells express high levels of p-ERK (as expected due to the permanent activation of the RAS pathway), proliferate much faster compared to controls and preserve the capacity to reform spheres after dissociation and re-plating.\n(§2) This in vitro culture system uses Tomato (Tom)+ stem-like glial cells at the origin of cNFs that can be amplified and propagated for the long periods. Briefly, skin from young mutant (NF1−/−) and control (NF1+/−) mice was dissected, dissociated and cell suspension incubated in the non-adherent condition with the presence of two mitogens, FGF and EGF. In such conditions only stem-like cells survive, proliferate and form compact multicellular floating structures called neurospheres. Since, in addition to the Tom+ glial stem-like cells, skin contains various other types of stem cells (Tom−), the neurospheres are composed of the intermingled Tom+ and Tom− cells. While in the mutant condition, neurospheres contain Tom+, Nf1−/− and Tom−, Nf1+/+ cells, in the Nf1+/− control condition neurospheres are composed of Tom+, Nf1+/− and Tom−, Nf1+/+ cells. In this study we have analysed the drug effect in Tom+ from NF1−/− and NfF1+/− mice.\n(§3) In the present study, floating sphere culture of Nf1+/−(Prss56Cre, R26Tom, Nf1flox/+) and Nf1−/− (Prss56Cre, R26Tom, Nf1flox/flox) glial cells isolated from newborn mouse skin were used. Then they are plated and treated and analysed independently. With this intent, Nf1+/− and Nf1−/− spheres were amplified until passage 3 (1 passage corresponds to 7 days of culture). At the end of PO (10 days), cells were split into 4 identical batches (clones 1-4), and were amplified to P3 (FIG. 1).\n(§4) At the end of P3, spheres from each clone were dissociated and cells transferred into two 12 well plates. 6 different concentrations (100 μm, 33 μm, 10 μm, 3 μm, 1 μm and 0 μm) of drug were added and cells were incubated for 72 h. An additional 12 well plate containing cells with DMSO (vehicle used for the drug resuspension) was used as a reference for the normalization of results. After 72 h analyses was performed the on the non-fixed cells: proliferative and cell death assay.\n(§5) For the analysis of proliferative activity, a cell tracker lipophilic dye (CellTrace Proliferation Kit, Thermo Fishers) was used. The cell tacker was added at the same time as the drugs. Cells were incubated for 72 h and proliferative activity was measured by cytometry analysis using LSR Fortessa X20 (BD Biosciences). This method measures a mean fluorescence intensity (MIF) for each condition. The condition with DMSO was used as a reference."}, "Tom+ NF1−/− cells [3]": {"system": "Tom+ NF1−/− cells", "test": "Cell death assay (DAPI, cytometry) in floating sphere culture, mutant cells", "type": "cell-based, mouse", "conditions": "for Ratio dead cells mean / Cell death of NF1−/− cells at highest concentration: 72 h; for Ratio dead cells mean: NF1−/− cells; for Cell death of NF1−/− cells at highest concentration: 100 μM, excluded from analysis", "procedure": "as §1, §2, §3, §4\n(§6) At 72 h of culture, cells were labelled for quantification of cell death using DAPI (4′,6-diamidino-2-phenylindole). Labelled cells were analyzed by cytometry with LSR Fortessa X20 (BD Biosciences)."}, "Tom+ NF1+/− cells [4]": {"system": "Tom+ NF1+/− cells", "test": "Proliferative activity (CellTrace, cytometry) in floating sphere culture, control cells", "type": "cell-based, mouse", "procedure": "This study uses a Nf1-KO mouse strain(Prss56Cre/+, R26tdTom/+, NF1fl/fl) developing cutaneous neurofibromas (cNFs) that faithfully recapitulates human disease (Radomska et a., 2019). In this model, simultaneous bi-allelic loss of Nf1 and expression of Tomato fluorescent reporters were targeted into glial-stem like cells at the origin of cNFs. The assay was performed ex vivo using non-adherent cells in which Tomato expressing Nf1−/− and Nf1+/− stem-like cells from skin can be amplified, and their properties further characterized. […]\nThis in vitro culture system uses Tomato (Tom)+ stem-like glial cells at the origin of cNFs that can be amplified and propagated for the long periods. […] In this study we have analysed the drug effect in Tom+ from NF1−/− and NfF1+/− mice.\nIn the present study, floating sphere culture of Nf1+/−(Prss56Cre, R26Tom, Nf1flox/+) and Nf1−/− (Prss56Cre, R26Tom, Nf1flox/flox) glial cells isolated from newborn mouse skin were used. Then they are plated and treated and analysed independently. […]\nas §5, with “The cell tacker was added at the same time as the drugs.” left out, “The condition with DMSO was used as a reference.” left out"}, "Tom+ NF1+/− cells [5]": {"system": "Tom+ NF1+/− cells", "test": "Cell death assay (DAPI, cytometry) in floating sphere culture, control cells", "type": "cell-based, mouse", "conditions": "for Cell death of NF1+/− cells at highest concentration: 100 μM, excluded from analysis", "procedure": "as §1, §2, §3, §4, §6"}, "[6]": {"conditions": "incubation with Selumetinib, concentration not given"}}, "data": [{"smiles": "O=[N+]([O-])c1ccc(O)c2ncccc12", "note": "[Nitroxoline, 5-nitroquinolin-8-ol]", "values": [{"measurement": "Overall abundance of cNF tumour cells in the skin", "setting": "[1]; 120 mg/kg once daily", "value": "reduces the overall abundance of cNF tumour cells"}, {"measurement": "Tumour size versus vehicle treated mice (fluorescent imaging of Tom+ cells)", "setting": "[1]; 120 mg/kg oral gavage once a day (5 days on, 2 days off)", "value": "smaller"}, {"measurement": "Ratio MIFmean (proliferation)", "setting": "Tom+ NF1−/− cells [2]; 1 μM, 72 h", "value": "0,7+/−0,26"}, {"measurement": "Ratio MIFmean (proliferation)", "setting": "Tom+ NF1−/− cells [2]; 3 μM, 72 h", "value": "0,60+/−0,22"}, {"measurement": "Ratio MIFmean (proliferation)", "setting": "Tom+ NF1−/− cells [2]; 10 μM, 72 h", "value": "0,5+/−0,18"}, {"measurement": "Effect on proliferative activity of NF1−/− cells", "setting": "Tom+ NF1−/− cells [2]; 33 μM to 1 μM, 72 h, except clone 3", "value": "reduced proliferative activity"}, {"measurement": "Ratio MIFmean (proliferation)", "setting": "Tom+ NF1−/− cells [2]; 33 μM, 72 h", "value": "0,39+/−0,11"}, {"measurement": "Ratio dead cells mean", "setting": "Tom+ NF1−/− cells [3]; 10 μM", "value": "2,04+/−0,63"}, {"measurement": "Ratio dead cells mean", "setting": "Tom+ NF1−/− cells [3]; 33 μM", "value": "8,86+/−0,66"}, {"measurement": "Cell death of NF1−/− cells at highest concentration", "setting": "Tom+ NF1−/− cells [3]", "value": "massive cell death"}, {"measurement": "Cell death of NF1−/− cells at highest concentration", "setting": "Tom+ NF1−/− cells [3]; listed as nitroxoline", "value": "massive nonspecific death"}, {"measurement": "Effect on proliferation of NF1+/− cells", "setting": "Tom+ NF1+/− cells [4]; 33 μM to 1 μM, 72 h", "value": "not affected"}, {"measurement": "Effect on cell death of NF1+/− cells", "setting": "Tom+ NF1+/− cells [5]; 33 μM, 72 h", "value": "without affecting NF1+/− cells"}, {"measurement": "Cell death of NF1+/− cells at highest concentration", "setting": "Tom+ NF1+/− cells [5]; 72 h", "value": "massive cell death"}, {"measurement": "Cell death of NF1+/− cells at highest concentration", "setting": "Tom+ NF1+/− cells [5]; 72 h, listed as nitroxoline", "value": "massive nonspecific death"}, {"measurement": "Effect on cell death of NF1+/− cells (control conditions)", "setting": "Tom+ NF1+/− cells [5]; lower concentrations (10 μM and below), 72 h", "value": "without affecting control conditions"}]}, {"smiles": "Cn1cnc2c(F)c(Nc3ccc(Br)cc3Cl)c(C(=O)NOCCO)cc21", "note": "[Selumetinib, 6-(4-bromo-2-chloroanilino)-7-fluoro-N-(2-hydroxyethoxy)-3-methylbenzimidazole-5-carboxamide]", "values": [{"measurement": "Effect on proliferative activity of Nf1−/− (mutant) cells", "setting": "Tom+ NF1−/− cells [2]; [6]", "value": "decreases proliferative activity"}, {"measurement": "Effect on death of Nf1−/− (mutant) cells", "setting": "Tom+ NF1−/− cells [3]; [6]", "value": "promotes death of mutant"}, {"measurement": "Effect on proliferative activity of Nf1+/− cells", "setting": "Tom+ NF1+/− cells [4]; [6]", "value": "without affecting Nf1+/− cells"}, {"measurement": "Effect on death of Nf1+/− cells", "setting": "Tom+ NF1+/− cells [5]; [6]", "value": "without affecting Nf1+/− cells"}]}]}
